As usually defined, the IC50 is the point on the concentration scale where inhibition reaches its midpoint.

Our source for the IC50 values is patent publication US10221197B2, “Phosphatidylinositol 3-kinase inhibitors” (Gilead Sciences, Inc., priority 2014, dated 2019).

Bounds are passed on as bounds.

Format in all cases: biochemical
One experiment has as its target PI3Kδ (Homo sapiens (Human), UniProt O00329). The experiment in a line: TR-FRET enzymatic assay of PI3K isoforms (PI3Kδ). The conditions noted are these: 2×Km ATP, 2 μM PIP2, incubated for 30 minutes at 25° C., read-out: δ IC50. The method, then: (§1) The compounds of formula (I) were characterized for their enzymatic activity against the PI3K isoforms. Certain compounds of the present application, including certain compounds of formula (II) and (III) were also characterized for their enzymatic activity against PI3K isoforms. The activities were measured using a time-resolved fluorescence resonance energy transfer (TR-FRET) assay.
A general note: Time-resolved FRET reads energy transfer from a long-lived donor to a nearby acceptor.

In another experiment the target is PI3Kβ (Homo sapiens (Human), UniProt P42338). The experiment in a line: TR-FRET enzymatic assay of PI3K isoforms (PI3Kβ). To be noted: TR-FRET, 2×Km ATP, 2 μM PIP2, incubated for 30 minutes at 25° C.; read-out: β IC50. How it is done: as §1
Another experiment addresses PI3Kγ (Homo sapiens (Human), UniProt P48736). The experiment in a line: TR-FRET enzymatic assay of PI3K isoforms (PI3Kγ). The conditions noted are these: TR-FRET, 2×Km ATP, 2 μM PIP2, PI3Kγ at 2 nM, incubated for 30 minutes at 25° C.; read-out: γ IC50. The method, then:
as §1

Sequence of PI3Kβ (P42338 whole entry, canonical isoform): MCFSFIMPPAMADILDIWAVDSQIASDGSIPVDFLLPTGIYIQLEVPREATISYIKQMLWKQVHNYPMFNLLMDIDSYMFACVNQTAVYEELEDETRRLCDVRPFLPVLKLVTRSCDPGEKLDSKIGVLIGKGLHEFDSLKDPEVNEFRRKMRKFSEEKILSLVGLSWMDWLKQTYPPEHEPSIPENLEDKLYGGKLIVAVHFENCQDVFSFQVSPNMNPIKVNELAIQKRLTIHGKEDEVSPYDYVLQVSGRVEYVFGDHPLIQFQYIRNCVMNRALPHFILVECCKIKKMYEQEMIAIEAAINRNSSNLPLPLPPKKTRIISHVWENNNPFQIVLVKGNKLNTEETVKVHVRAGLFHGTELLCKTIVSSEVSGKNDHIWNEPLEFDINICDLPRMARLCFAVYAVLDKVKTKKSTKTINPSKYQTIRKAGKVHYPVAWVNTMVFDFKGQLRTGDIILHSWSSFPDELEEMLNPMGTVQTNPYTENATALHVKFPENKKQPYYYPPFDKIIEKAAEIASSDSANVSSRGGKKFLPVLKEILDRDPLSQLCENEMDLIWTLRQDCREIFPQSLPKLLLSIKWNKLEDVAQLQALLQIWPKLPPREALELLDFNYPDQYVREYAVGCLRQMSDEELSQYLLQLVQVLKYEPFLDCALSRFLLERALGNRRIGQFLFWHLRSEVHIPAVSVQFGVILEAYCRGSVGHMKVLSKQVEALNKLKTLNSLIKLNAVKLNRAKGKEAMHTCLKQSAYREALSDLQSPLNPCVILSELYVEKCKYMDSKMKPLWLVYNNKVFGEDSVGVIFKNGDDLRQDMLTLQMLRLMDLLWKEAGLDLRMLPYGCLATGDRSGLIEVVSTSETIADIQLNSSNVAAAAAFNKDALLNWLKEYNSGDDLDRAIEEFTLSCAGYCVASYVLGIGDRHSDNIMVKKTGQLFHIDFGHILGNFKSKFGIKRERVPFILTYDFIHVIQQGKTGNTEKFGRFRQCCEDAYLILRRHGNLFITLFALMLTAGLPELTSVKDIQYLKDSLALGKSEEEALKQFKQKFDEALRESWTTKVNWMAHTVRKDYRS
Sequence of PI3Kβ (P27986 whole entry partner, canonical isoform): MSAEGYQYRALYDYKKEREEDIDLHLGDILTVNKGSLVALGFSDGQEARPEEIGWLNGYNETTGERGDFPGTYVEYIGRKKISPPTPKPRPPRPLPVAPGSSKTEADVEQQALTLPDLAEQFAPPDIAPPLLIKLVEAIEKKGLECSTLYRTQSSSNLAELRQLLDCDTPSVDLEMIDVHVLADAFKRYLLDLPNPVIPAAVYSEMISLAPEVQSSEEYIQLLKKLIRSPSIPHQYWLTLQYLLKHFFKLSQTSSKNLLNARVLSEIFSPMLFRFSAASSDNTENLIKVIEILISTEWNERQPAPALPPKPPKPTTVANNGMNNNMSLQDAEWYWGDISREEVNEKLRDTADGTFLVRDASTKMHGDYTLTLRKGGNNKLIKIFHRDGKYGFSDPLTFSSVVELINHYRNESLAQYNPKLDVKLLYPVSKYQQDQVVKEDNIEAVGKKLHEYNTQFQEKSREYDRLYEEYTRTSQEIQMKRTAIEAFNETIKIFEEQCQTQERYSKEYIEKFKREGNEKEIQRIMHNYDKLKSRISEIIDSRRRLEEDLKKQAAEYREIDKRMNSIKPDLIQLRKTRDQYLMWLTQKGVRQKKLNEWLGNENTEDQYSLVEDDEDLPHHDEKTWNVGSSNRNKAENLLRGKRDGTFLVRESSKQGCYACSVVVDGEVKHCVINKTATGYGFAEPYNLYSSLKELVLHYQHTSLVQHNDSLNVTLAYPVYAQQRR
Sequence of PI3Kδ (O00329 whole entry, canonical isoform): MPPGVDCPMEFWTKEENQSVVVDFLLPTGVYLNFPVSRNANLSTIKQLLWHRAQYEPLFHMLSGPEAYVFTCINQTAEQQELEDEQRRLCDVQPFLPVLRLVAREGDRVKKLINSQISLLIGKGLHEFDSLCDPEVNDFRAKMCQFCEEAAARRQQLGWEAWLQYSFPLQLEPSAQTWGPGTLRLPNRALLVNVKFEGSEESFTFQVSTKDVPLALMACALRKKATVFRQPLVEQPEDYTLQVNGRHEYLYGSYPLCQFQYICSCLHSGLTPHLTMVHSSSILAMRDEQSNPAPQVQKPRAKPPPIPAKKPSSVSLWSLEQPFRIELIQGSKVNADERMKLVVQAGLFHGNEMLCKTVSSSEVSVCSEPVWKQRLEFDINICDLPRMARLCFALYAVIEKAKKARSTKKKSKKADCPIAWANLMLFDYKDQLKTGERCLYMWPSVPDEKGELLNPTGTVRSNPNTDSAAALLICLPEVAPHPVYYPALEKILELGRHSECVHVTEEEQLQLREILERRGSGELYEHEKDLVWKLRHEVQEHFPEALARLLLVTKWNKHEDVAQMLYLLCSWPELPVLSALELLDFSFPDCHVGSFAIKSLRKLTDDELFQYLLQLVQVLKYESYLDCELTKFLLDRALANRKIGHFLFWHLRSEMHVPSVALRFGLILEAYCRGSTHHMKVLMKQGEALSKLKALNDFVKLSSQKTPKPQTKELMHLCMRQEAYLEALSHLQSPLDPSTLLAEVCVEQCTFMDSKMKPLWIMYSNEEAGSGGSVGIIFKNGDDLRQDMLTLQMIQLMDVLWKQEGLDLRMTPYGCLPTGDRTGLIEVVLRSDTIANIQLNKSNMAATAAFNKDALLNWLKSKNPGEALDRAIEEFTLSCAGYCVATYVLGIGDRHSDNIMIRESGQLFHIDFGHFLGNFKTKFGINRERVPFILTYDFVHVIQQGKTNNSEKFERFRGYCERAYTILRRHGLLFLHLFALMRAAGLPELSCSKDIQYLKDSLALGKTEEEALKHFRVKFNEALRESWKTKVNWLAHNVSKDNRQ
Sequence of PI3Kδ (P27986 whole entry partner, canonical isoform): as the sequence (P27986 whole entry partner, canonical isoform) above
Sequence of PI3Kγ (P48736 whole entry, canonical isoform): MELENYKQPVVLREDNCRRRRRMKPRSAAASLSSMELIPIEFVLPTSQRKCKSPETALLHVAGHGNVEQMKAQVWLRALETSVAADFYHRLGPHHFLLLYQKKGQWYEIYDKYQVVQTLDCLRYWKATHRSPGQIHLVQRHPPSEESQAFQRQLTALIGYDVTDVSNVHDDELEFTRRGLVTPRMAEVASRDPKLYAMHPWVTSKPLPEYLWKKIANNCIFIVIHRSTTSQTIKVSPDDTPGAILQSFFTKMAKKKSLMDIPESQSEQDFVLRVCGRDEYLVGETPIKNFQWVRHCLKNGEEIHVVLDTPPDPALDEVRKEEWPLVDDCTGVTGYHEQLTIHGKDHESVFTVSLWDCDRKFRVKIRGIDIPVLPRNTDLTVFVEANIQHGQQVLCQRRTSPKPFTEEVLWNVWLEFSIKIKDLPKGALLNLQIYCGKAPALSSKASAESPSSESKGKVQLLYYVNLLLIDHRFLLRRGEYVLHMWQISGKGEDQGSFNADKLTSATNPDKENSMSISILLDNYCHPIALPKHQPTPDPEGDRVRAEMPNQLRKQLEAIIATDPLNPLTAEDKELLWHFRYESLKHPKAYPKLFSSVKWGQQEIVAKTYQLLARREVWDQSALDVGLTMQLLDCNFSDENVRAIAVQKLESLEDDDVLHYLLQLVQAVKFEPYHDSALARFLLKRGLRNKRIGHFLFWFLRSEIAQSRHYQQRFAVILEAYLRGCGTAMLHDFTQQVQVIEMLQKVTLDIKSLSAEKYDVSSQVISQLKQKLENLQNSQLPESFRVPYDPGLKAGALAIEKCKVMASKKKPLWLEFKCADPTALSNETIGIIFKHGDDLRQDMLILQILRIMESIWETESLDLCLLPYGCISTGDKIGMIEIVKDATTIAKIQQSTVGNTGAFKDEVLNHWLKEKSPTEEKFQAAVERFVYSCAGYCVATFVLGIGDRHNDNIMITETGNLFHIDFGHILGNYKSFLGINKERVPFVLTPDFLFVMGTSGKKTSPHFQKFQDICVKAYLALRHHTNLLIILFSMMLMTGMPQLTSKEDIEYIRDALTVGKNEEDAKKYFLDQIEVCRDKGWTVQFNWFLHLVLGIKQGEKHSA
Sequence of PI3Kγ (Q8WYR1 whole entry partner, canonical isoform): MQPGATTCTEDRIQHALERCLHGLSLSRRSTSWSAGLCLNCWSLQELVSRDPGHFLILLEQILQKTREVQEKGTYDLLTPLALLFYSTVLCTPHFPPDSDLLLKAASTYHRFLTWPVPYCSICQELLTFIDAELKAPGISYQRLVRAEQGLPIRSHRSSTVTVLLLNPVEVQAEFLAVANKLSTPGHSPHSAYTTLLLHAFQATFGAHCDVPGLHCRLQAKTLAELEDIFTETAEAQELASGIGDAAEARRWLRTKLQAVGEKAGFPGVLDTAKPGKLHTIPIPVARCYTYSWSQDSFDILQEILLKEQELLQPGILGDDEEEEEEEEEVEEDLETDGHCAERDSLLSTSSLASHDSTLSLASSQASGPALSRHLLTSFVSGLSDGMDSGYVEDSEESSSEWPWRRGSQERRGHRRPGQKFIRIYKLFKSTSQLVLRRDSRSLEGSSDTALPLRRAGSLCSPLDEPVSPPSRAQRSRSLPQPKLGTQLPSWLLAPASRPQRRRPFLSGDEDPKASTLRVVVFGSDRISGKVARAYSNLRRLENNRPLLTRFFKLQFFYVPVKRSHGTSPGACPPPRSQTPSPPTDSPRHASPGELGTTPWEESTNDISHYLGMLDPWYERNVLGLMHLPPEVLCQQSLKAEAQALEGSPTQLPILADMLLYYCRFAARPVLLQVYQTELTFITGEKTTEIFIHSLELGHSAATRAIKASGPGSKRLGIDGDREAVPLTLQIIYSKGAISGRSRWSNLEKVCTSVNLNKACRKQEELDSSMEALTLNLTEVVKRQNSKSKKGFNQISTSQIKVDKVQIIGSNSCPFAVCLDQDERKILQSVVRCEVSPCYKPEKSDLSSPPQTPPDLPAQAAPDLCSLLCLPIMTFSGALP

`CCNC(=O)Nc1ccc(Cl)c(-n2c([C@H](C)Nc3ncnc(N)c3C#N)nc3cccc(Cl)c3c2=O)c1` (atropisomer, axis not shown) [Compound 59, (S)-1-(3-(2-(1-((6-amino-5-cyanopyrimidin-4-yl)amino)ethyl)-5-chloro-4-oxoquinazolin-3(4H)-yl)-4-chlorophenyl)-3-ethylurea]: the IC50 on PI3Kδ came out at 56 nM; at PI3Kβ, 610 nM; at PI3Kγ, 2300 nM.
In the same order, the values of `CCNC(=O)Nc1ccc(C)c(-n2c([C@H](C)Nc3ncnc(N)c3C#N)nc3cccc(Cl)c3c2=O)c1` (atropisomer, axis not shown) [Compound 60, (S)-1-(3-(2-(1-((6-amino-5-cyanopyrimidin-4-yl)amino)ethyl)-5-chloro-4-oxoquinazolin-3(4H)-yl)-4-methylphenyl)-3-ethylurea] are 4 nM, 210 nM and 210 nM.
`CCNC(=O)Nc1ccc(C)c(-n2c([C@H](C)Nc3ncnc(N)c3C#N)nc3cccc(Cl)c3c2=O)c1` (atropisomer, axis not shown) [Compound 61, (S)-1-(3-(2-(1-((6-amino-5-cyanopyrimidin-4-yl)amino)ethyl)-5-chloro-4-oxoquinazolin-3(4H)-yl)-4-methylphenyl)-3-ethylurea]: the IC50 at PI3Kδ amounted to 8 nM; at PI3Kβ, 1130 nM; on PI3Kγ, 2500 nM.
In the same order, the values of `Cc1c(C(N)=O)cccc1-n1c([C@H](C)Nc2nc(N)nc(N)c2C#N)nc2cccc(Cl)c2c1=O` (single isomer, unassigned) [Compound 5] are 2 nM, 526 nM and 81 nM.
Consider `Cc1c(C(N)=O)cccc1-n1c([C@H](C)Nc2nc(N)nc(N)c2C#N)nc2cccc(Cl)c2c1=O` (single isomer, unassigned) [Compound 6], for which the half-inhibitory concentration (IC50) at PI3Kδ was found to be 4 nM; at PI3Kβ, 32 nM; at PI3Kγ it was 620 nM.
In the case of `CCNC(=O)Nc1cccc(-n2c([C@H](C)Nc3ncnc(N)c3C#N)nc3cccc(Cl)c3c2=O)c1Cl` (single isomer, unassigned) [Compound 94], the values for the 50% inhibitory concentration (IC50) on PI3Kδ, at PI3Kβ and at PI3Kγ were 78 nM, 5500 nM and > 10000 nM, respectively.
On the same counts, the results for `CCNC(=O)Nc1cccc(-n2c([C@H](C)Nc3ncnc(N)c3C#N)nc3cccc(Cl)c3c2=O)c1Cl` (single isomer, unassigned) [Compound 95] are 5 nM, 59 nM and 1000 nM.
In the same order, the values of `C[C@H](Nc1nc(N)nc(N)c1Cl)c1nc2cccc(Cl)c2c(=O)n1-c1cccc(C(N)=O)c1` [Compound 1, (S)-3-(5-chloro-2-(1-((2,6-diamino-5-chloropyrimidin-4-yl)amino)ethyl)-4-oxoquinazolin-3(4H)-yl)benzamide] are 0.7 nM, 14 nM and 1300 nM.
In the same order, the values of `C[C@H](Nc1nc(N)nc(N)c1C#N)c1nc2cccc(Cl)c2c(=O)n1-c1cccc(C(N)=O)c1` [Compound 2, (S)-3-(5-chloro-2-(1-((2,6-diamino-5-cyanopyrimidin-4-yl)amino)ethyl)-4-oxoquinazolin-3(4H)-yl)benzamide] are 0.5 nM, 6 nM and 60 nM.
On to `C[C@H](Nc1nc(N)nc(N)c1C#N)c1nc2c(Cl)ccc(Cl)c2c(=O)n1-c1cccc(C(N)=O)c1` [Compound 3, (S)-3-(5,8-dichloro-2-(1-((2,6-diamino-5-cyanopyrimidin-4-yl)amino)ethyl)-4-oxoquinazolin-3(4H)-yl)benzamide], for which the concentration for half-maximal inhibition (IC50) at PI3Kδ is 0.8 nM; on PI3Kβ, 12 nM; on PI3Kγ, 460 nM.
In the same order, the values of `C[C@H](Nc1nc(N)nc(N)c1Cl)c1nc2c(Cl)ccc(Cl)c2c(=O)n1-c1cccc(C(N)=O)c1` [Compound 4, (S)-3-(5,8-dichloro-2-(1-((2,6-diamino-5-chloropyrimidin-4-yl)amino)ethyl)-4-oxoquinazolin-3(4H)-yl)benzamide] are 1 nM, 29 nM and 4400 nM.
On the same counts, the results for `CC[C@H](Nc1nc(N)nc(N)c1Cl)c1nc2cccc(Cl)c2c(=O)n1-c1cccc(C(N)=O)c1` [Compound 7, (S)-3-(5-chloro-2-(1-((2,6-diamino-5-chloropyrimidin-4-yl)amino)propyl)-4-oxoquinazolin-3(4H)-yl)benzamide] are 1 nM, 7 nM and 2700 nM.
On the same counts, the results for `CC[C@H](Nc1nc(N)nc(N)c1C#N)c1nc2cccc(Cl)c2c(=O)n1-c1cccc(C(N)=O)c1` [Compound 8, (S)-3-(5-chloro-2-(1-((2,6-diamino-5-cyanopyrimidin-4-yl)amino)propyl)-4-oxoquinazolin-3(4H)-yl)benzamide] are 0.4 nM, 2 nM and 200 nM.
For `N#Cc1c(N)nc(N)nc1N[C@H](c1nc2cccc(Cl)c2c(=O)n1-c1cccc(C(N)=O)c1)C1CC1` [Compound 9, (S)-3-(5-chloro-2-(cyclopropyl((2,6-diamino-5-cyanopyrimidin-4-yl)amino)methyl)-4-oxoquinazolin-3(4H)-yl)benzamide], the IC50 on PI3Kδ is 0.6 nM; at PI3Kβ it was 2 nM; on PI3Kγ, 220 nM.
In the same order, the values of `NC(=O)c1cccc(-n2c([C@@H](Nc3nc(N)nc(N)c3Cl)C3CC3)nc3cccc(Cl)c3c2=O)c1` [Compound 10, (S)-3-(5-chloro-2-(cyclopropyl((2,6-diamino-5-chloropyrimidin-4-yl)amino)methyl)-4-oxoquinazolin-3(4H)-yl)benzamide] are 1 nM, 7 nM and 2700 nM.
As to `NC(=O)c1cccc(-n2c([C@@H](Nc3nc(N)nc(N)c3Cl)C3CC3)nc3c(Cl)ccc(Cl)c3c2=O)c1` [Compound 11, (S)-3-(5,8-dichloro-2-(cyclopropyl((2,6-diamino-5-chloropyrimidin-4-yl)amino)methyl)-4-oxoquinazolin-3(4H)-yl)benzamide], the half-inhibitory concentration (IC50) at PI3Kδ came out at 3 nM; on PI3Kβ it was 37 nM; at PI3Kγ it was 8500 nM.
On the same counts, the results for `N#Cc1c(N)nc(N)nc1N[C@H](c1nc2c(Cl)ccc(Cl)c2c(=O)n1-c1cccc(C(N)=O)c1)C1CC1` [Compound 12, (S)-3-(5,8-dichloro-2-(cyclopropyl((2,6-diamnino-5-cyanopyrimidin-4-yl)amino)methyl)-4-oxoquinazolin-3(4H)-yl)benzamide] are 0.3 nM, 6 nM and 230 nM.
With `Cc1nc(N)nc(N[C@H](c2nc3c(F)ccc(Cl)c3c(=O)n2-c2cccc(C(N)=O)c2)C2CC2)c1C#N` [Compound 14, (S)-3-(2-(((2-amino-5-cyano-6-methylpyrimidin-4-yl)amino)(cyclopropyl)methyl)-5-chloro-8-fluoro-4-oxoquinazolin-3(4H)-yl)benzamide], the IC50 came to 1 nM at PI3Kδ, 10 nM at PI3Kβ and 360 nM on PI3Kγ.
On the same counts, the results for `N#Cc1c(N)nc(N)nc1N[C@H](c1nc2c(F)ccc(Cl)c2c(=O)n1-c1cccc(C(N)=O)c1)C1CC1` [Compound 15, (S)-3-(5-chloro-2-(cyclopropyl((2,6-diamino-5-cyanopyrimidin-4-yl)amino)methyl)-8-fluoro-4-oxoquinazolin-3(4H)-yl)benzamide] are 1 nM, 10 nM and 330 nM.
On the same counts, the results for `NC(=O)c1cccc(-n2c([C@@H](Nc3nc(N)nc(N)c3Cl)C3CC3)nc3c(F)ccc(Cl)c3c2=O)c1` [Compound 16, (S)-3-(5-chloro-2-(cyclopropyl((2,6-diamino-5-chloropyrimidin-4-yl)amino)methyl)-8-fluoro-4-oxoquinazolin-3(4H)-yl)benzamide] are 2 nM, 17 nM and 3200 nM.
On the same counts, the results for `CC[C@H](Nc1nc(N)nc(N)c1C#N)c1nc2c(Cl)ccc(Cl)c2c(=O)n1-c1cccc(C(N)=O)c1` [Compound 18, (S)-3-(5,8-dichloro-2-(1-((2,6-diamino-5-cyanopyrimidin-4-yl)amino)propyl)-4-oxoquinazolin-3(4H)-yl)benzamide] are 0.5 nM, 8 nM and 1200 nM.
For the compound `CC[C@H](Nc1nc(N)nc(N)c1Cl)c1nc2c(Cl)ccc(Cl)c2c(=O)n1-c1cccc(C(N)=O)c1` [Compound 19, (S)-3-(5,8-dichloro-2-(1-((2,6-diamino-5-chloropyrimidin-4-yl)amino)propyl)-4-oxoquinazolin-3(4H)-yl)benzamide], the IC50 is 3 nM on PI3Kδ, 28 nM at PI3Kβ and > 10000 nM on PI3Kγ.
Turning to `CCC[C@H](Nc1nc(N)nc(N)c1Cl)c1nc2c(Cl)ccc(Cl)c2c(=O)n1-c1cccc(C(N)=O)c1` [Compound 21, (S)-3-(5,8-dichloro-2-(1-((2,6-diamino-5-chloropyrimidin-4-yl)amino)butyl)-4-oxoquinazolin-3(4H)-yl)benzamide], the IC50 on PI3Kδ was 19 nM; at PI3Kβ, 196 nM; on PI3Kγ, > 10000 nM.
Take `CCC[C@H](Nc1nc(N)nc(N)c1C#N)c1nc2cccc(Cl)c2c(=O)n1-c1cccc(C(N)=O)c1` [Compound 22, (S)-3-(5-chloro-2-(1-((2,6-diamino-5-cyanopyrimidin-4-yl)amino)butyl)-4-oxoquinazolin-3(4H)-yl)benzamide]: the IC50 was 0.7 nM at PI3Kδ, 7 nM at PI3Kβ and 300 nM at PI3Kγ.
